The values that follow come from publication PMC5011342, “A high throughput drug screening assay to identify compounds that promote oligodendrocyte differentiation using acutely dissociated and purified oligodendrocyte precursor cells” (BMC Research Notes, 2016).

The test system of one data set is expanded OPCs. In words: cells. The conditions noted are these: for viability at 0.1 µM / viability at 1 µM / viability at 10 µM: Rattus norvegicus, 72 h. The gist of the method:
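Toxicity screen: compounds added at 0.1, 1 and 10 µM to PDGF-AA-expanded OPCs in 96-well plates, 3-day incubation at 37 °C, 10% CO2, then alamarBlue 1:10 for 4 h with fluorescence readout. Results set screening doses of 10/2, 2/0.4 or 0.4/0.08 µM.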

The subject of data set [1] is acutely dissociated and purified rat OPCs. In words: Acute OL differentiation assay (MBP expression/cell, immunofluorescent image quantification). The format is cell-based. Summed up: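 This acute differentiation assay used purified rat OPCs from postnatal day 6–7 pups, seeded into PDL/laminin-coated 96-well plates in differentiation medium lacking PDGF and FGF. Compounds were applied in quadruplicate after a 1–2 h preincubation at 37 °C, 10 % CO2, with 0.1 % DMSO negative and 40 ng/ml T3 positive controls in eight wells. After fixation on DIV4, anti-MBP immunofluorescence images yielded MBP expression/cell.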

The mark [2] stands for this setting: read-out: 0.1 µM (% DMSO), alamarBlue viability, NCC library compound at 0.1 µM, sheet "All Tox data".
The mark [3] stands for this setting: read-out: 1 µM (% DMSO), alamarBlue viability, NCC library compound at 1 µM, sheet "All Tox data".
[4] abbreviates: read-out: 10 µM (% DMSO), alamarBlue viability, NCC library compound at 10 µM, sheet "All Tox data".
Setting [5] is: Rattus norvegicus, test compound at 2 uM, NCC library screen, sheet "All OLga data", relative to quetiapine, read-out: 2 uM (% Quet).
[6] abbreviates: Rattus norvegicus, test compound at 10 uM, NCC library screen, sheet "All OLga data", relative to quetiapine, read-out: 10 uM (% Quet).
The mark [7] stands for this setting: read-out: 0.1 µM (% DMSO), alamarBlue viability of expanded OPCs, compound at 0.1 µM, sheet All Tox data.
[8] abbreviates: read-out: 1 µM (% DMSO), alamarBlue viability of expanded OPCs, compound at 1 µM, sheet All Tox data.
[9] abbreviates: read-out: 10 µM (% DMSO), alamarBlue viability of expanded OPCs, compound at 10 µM, sheet All Tox data.
[10] abbreviates: Rattus norvegicus, 2 uM test compound, relative to quetiapine, sheet "All OLga data", read-out: OL differentiation, 2 uM (% Quet).
The mark [11] stands for this setting: Rattus norvegicus, 10 uM test compound, relative to quetiapine, sheet "All OLga data", read-out: OL differentiation, 10 uM (% Quet).
Setting [12] is: alamarBlue viability of expanded OPCs, compound at 0.1 µM, relative to DMSO control.
Where [13] appears, read: alamarBlue viability of expanded OPCs, compound at 1 µM, relative to DMSO control.
[14] abbreviates: alamarBlue viability of expanded OPCs, compound at 10 µM, relative to DMSO control.

Where two headings read alike, the source gives them in different places.

As a reminder, the viability is a read-out of living cells in per cent, often relative to untreated cells. `COc1ccc2[nH]cc(C3=CCNCC3)c2c1` [RU-24969]: the viability at 0.1 µM in the data set with expanded OPCs (setting [2]) was 83.2%. Moreover, the viability at 1 µM in the data set with expanded OPCs (setting [3]) was found to be 62.4%. The viability at 10 µM in the data set on expanded OPCs (setting [4]) worked out at 36.7%. The activation at 0.4 µM in data set [1] (Rattus norvegicus, test compound at 0.4 uM, NCC library screen, sheet "All OLga data", relative to quetiapine, read-out: 0.4 uM (% Quet)) was -5.3%. Also, the activation at 2 µM in data set [1] (setting [5]) is -15.5%.

Turning to `COCCCOc1ccnc(C[S+]([O-])c2nc3ccccc3[nH]2)c1C` (centres unmarked) [Rabeprazole], the viability at 0.1 µM in the data set with expanded OPCs (setting [2]) stood at 101%. Further, in the data set on expanded OPCs (setting [3]), the viability at 1 µM was determined as 85.1%. Further, the viability at 10 µM in the data set with expanded OPCs (setting [4]) was 76.7%. For the same molecule, in data set [1] (setting [5]), the activation at 2 µM was -8.5%. In data set [1] (setting [6]), the activation at 10 µM is -69.9%.

In the case of `CC(=O)SCC(Cc1ccccc1)C(=O)NCC(=O)OCc1ccccc1` (centres unmarked) [Racecadotril], the viability at 0.1 µM in the data set with expanded OPCs (setting [7]) is 87.4%. In addition, in the data set with expanded OPCs (setting [8]), the viability at 1 µM turned out to be 92.9%. Moreover, in the data set with expanded OPCs (setting [9]), the viability at 10 µM was determined as 77.6%. The activation at 2 µM in data set [1] (setting [10]) came to 23%. Also, the activation at 10 µM in data set [1] (setting [11]) came to 56.4%.

Consider `CCN1CCC[C@H]1CNC(=O)c1c(O)c(Cl)cc(Cl)c1OC` [Raclopride], for which the viability at 0.1 µM in the data set with expanded OPCs (setting [7]) worked out at 93.2%. The viability at 1 µM in the data set with expanded OPCs (setting [8]) was found to be 92.8%. Further, the viability at 10 µM in the data set with expanded OPCs (setting [9]) turned out to be 89.9%. Further, the activation at 2 µM in data set [1] (setting [10]) stood at 12.4%. In data set [1] (setting [11]), the activation at 10 µM amounted to 43.4%.

As usually defined, the EC50 is the concentration that produces a half-maximal response. A high value points to weaker potency. Consider `O=C(c1ccc(OCCN2CCCCC2)cc1)c1c(-c2ccc(O)cc2)sc2cc(O)ccc12` [Raloxifene, reference compound], for which, in the data set with expanded OPCs (setting [12]), the “0.1 µM (% DMSO)” value was 161.1 % DMSO. The “1 µM (% DMSO)” value in the data set with expanded OPCs (setting [13]) worked out at 38.6 % DMSO. Also, the “10 µM (% DMSO)” value with expanded OPCs (setting [14]) was found to be 7.7 % DMSO. Moreover, the activation at 0.08 µM in data set [1] (Rattus norvegicus, test compound at 0.08 uM, MBP expression relative to quetiapine, NCC library screen, sheet "All OLga data", read-out: 0.08 uM (% Quet)) was found to be 91.9%. Also, the activation at 0.4 µM in data set [1] (Rattus norvegicus, test compound at 0.4 uM, MBP expression relative to quetiapine, NCC library screen, sheet "All OLga data", read-out: 0.4 uM (% Quet)) is -62.1%. Also, in data set [1] (Rattus norvegicus, average EC50 for induction of OL differentiation from independent biological replicates, eight concentrations), the 50% effective concentration (EC50) was found to be 100 nM. Besides, the “hit in OL differentiation assay, MRF-TMC” value in data set [1] (● = confirmed hit in this paper's assay) is “●”.

Consider `Cc1nc2ccc(CN(C)c3ccc(C(=O)N[C@@H](CCC(=O)O)C(=O)O)s3)cc2c(=O)[nH]1` [Raltitrexed], for which the viability at 0.1 µM in the data set with expanded OPCs (setting [2]) turned out to be 71.4%. The viability at 1 µM in the data set with expanded OPCs (setting [3]) came to 63.5%. For the same molecule, in the data set with expanded OPCs (setting [4]), the viability at 10 µM turned out to be 59.6%. The activation at 2 µM in data set [1] (setting [5]) was -13.8%. In data set [1] (setting [6]), the activation at 10 µM is -1.3%.

As to `CCOC(=O)[C@H](CCc1ccccc1)N[C@@H](C)C(=O)N1[C@H](C(=O)O)C[C@@H]2CCC[C@@H]21` [Ramipril], the viability at 0.1 µM in the data set on expanded OPCs (setting [7]) is 90.8%. Further, the viability at 1 µM in the data set with expanded OPCs (setting [8]) came out at 98.4%. Besides, in the data set on expanded OPCs (setting [9]), the viability at 10 µM worked out at 100%. Besides, the “0.1 µM (% DMSO)” value with expanded OPCs (rat, 3 days, 0.1 µM) is recorded as 92.1 % DMSO. Further, the “1 µM (% DMSO)” value in the data set with expanded OPCs (rat, 3 days, 1 µM) worked out at 96.0 % DMSO. For the same molecule, in the data set on expanded OPCs (rat, 3 days, 10 µM), the “10 µM (% DMSO)” value worked out at 96.0 % DMSO. The activation at 2 µM was -3.3% in data set [1] (setting [10]) and 2.5% in data set [1] (Rattus norvegicus, test compound at 2 uM, MBP expression relative to quetiapine, NCC library screen, sheet "All OLga data", read-out: 2 uM (% Quet)). For the same molecule, the activation at 10 µM was -14.5% in data set [1] (setting [11]) and -1.1% in data set [1] (Rattus norvegicus, test compound at 10 uM, MBP expression relative to quetiapine, NCC library screen, sheet "All OLga data", read-out: 10 uM (% Quet)).

On to `CNC(=C[N+](=O)[O-])NCCSCc1ccc(CN(C)C)o1` [Ranitidine], for which, in the data set with expanded OPCs (setting [12]), the “0.1 µM (% DMSO)” value is 109.0 % DMSO. The “1 µM (% DMSO)” value with expanded OPCs (setting [13]) is listed as 105.8 % DMSO. Also, in the data set on expanded OPCs (setting [14]), the “10 µM (% DMSO)” value is listed as 106.7 % DMSO. In data set [1] (setting [5]), the activation at 2 µM is -29.4%. Besides, the activation at 10 µM in data set [1] (setting [6]) was -7.9%.

In the case of `COc1ccccc1OCC(O)CN1CCN(CC(=O)Nc2c(C)cccc2C)CC1` (centres unmarked) [Ranolazine], in the data set with expanded OPCs (setting [7]), the viability at 0.1 µM was 99.2%. Further, the viability at 1 µM in the data set on expanded OPCs (setting [8]) came out at 92.2%. Besides, the viability at 10 µM with expanded OPCs (setting [9]) came out at 95.9%. Besides, the activation at 2 µM in data set [1] (setting [10]) was 11.6%. In addition, in data set [1] (setting [11]), the activation at 10 µM is -35.3%.

Regarding `CC(Cc1ccccc1)(NC(=O)CN)c1ccccc1` (centres unmarked) [Remacemide], the viability at 0.1 µM in the data set with expanded OPCs (setting [2]) came out at 113%. The viability at 1 µM in the data set with expanded OPCs (setting [3]) was determined as 88.6%. The viability at 10 µM with expanded OPCs (setting [4]) turned out to be 44.7%. In addition, in data set [1] (Rattus norvegicus, 0.4 uM test compound, relative to quetiapine, sheet "All OLga data", read-out: OL differentiation, 0.4 uM (% Quet)), the activation at 0.4 µM was found to be 5.6%. Besides, the activation at 2 µM in data set [1] (setting [10]) came out at 4.8%.

`CN1CCN2c3ncccc3Cc3ccccc3C2C1` (centres unmarked) [Remergil]: in the data set on expanded OPCs, the “0.1 µM (% DMSO)” value came out at 90.1 % DMSO, the “1 µM (% DMSO)” value is given as 82.0 % DMSO and the “10 µM (% DMSO)” value is reported as 62.7 % DMSO. Besides, the “2 uM (% Quet)” value in data set [1] (test compound at 2 uM, MBP expression relative to quetiapine, NCC library screen, sheet "All OLga data") is on record as -49.3 % Quet. Moreover, the “10 uM (% Quet)” value in data set [1] (test compound at 10 uM, MBP expression relative to quetiapine, NCC library screen, sheet "All OLga data") was -63.5 % Quet.
